ChEMBL document CHEMBL2074235, “Transporter-mediated Drug Interactions” (Drug Metabol Pharmacokin, 2002)

Molecular target: T1, Solute carrier family 15 member 1 (Homo sapiens) (UniProt P46059)
T1 sequence (whole entry): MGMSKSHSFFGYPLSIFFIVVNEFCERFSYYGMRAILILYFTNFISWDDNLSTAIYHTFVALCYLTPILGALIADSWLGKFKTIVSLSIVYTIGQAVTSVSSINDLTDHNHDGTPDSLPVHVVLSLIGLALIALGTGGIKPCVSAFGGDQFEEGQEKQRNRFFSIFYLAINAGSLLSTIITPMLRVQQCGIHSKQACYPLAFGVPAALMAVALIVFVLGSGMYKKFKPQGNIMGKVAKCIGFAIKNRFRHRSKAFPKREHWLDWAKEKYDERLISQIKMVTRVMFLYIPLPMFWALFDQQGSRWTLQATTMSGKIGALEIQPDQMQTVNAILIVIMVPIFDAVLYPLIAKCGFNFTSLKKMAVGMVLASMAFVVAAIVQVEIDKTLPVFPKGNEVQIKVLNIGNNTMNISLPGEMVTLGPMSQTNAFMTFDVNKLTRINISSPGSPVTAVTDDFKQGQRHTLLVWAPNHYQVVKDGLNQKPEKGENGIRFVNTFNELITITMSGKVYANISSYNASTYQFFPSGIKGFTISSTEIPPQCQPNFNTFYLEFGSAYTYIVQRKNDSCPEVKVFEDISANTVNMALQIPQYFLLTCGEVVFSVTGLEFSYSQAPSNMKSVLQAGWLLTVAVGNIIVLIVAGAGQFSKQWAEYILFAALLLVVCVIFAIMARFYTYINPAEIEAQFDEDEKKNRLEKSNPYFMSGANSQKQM
Assay: TP_TRANSPORTER: uptake in Xenopus laevis oocytes
Assay type: functional, cell-based
Conditions: Oocyte

CCOC(=O)[C@H](CCc1ccccc1)N[C@H]1CS[C@H](c2cccs2)CN(CC(=O)O)C1=O was tested, and the Activity was “substrate [+]”.

Nc1nc(/C(=C/CC(=O)O)C(=O)N[C@@H]2C(=O)N3C(C(=O)O)=CCS[C@H]23)cs1 was tested, and the Activity was “substrate [+]”.

C[C@@H](O)[C@H]1C(=O)N2C(C(=O)O)=C([C@H]3CCCO3)S[C@H]12 was tested, and the Activity was “is not a substrate [-]”.

In the case of CO/N=C(\C(=O)N[C@@H]1C(=O)N2C(C(=O)O)=CCS[C@H]12)c1csc(N)n1, the Activity is reported as “is not a substrate [-]”.

For NCCC(=O)N[C@@H](Cc1c[nH]cn1)C(=O)O, the Activity was “substrate [+]”.

In the case of O=C(O)CO/N=C(\C(=O)N[C@@H]1C(=O)N2C(C(=O)O)=CCS[C@H]12)c1cscn1, the Activity is reported as “substrate [+]”.

For C=CC1=C(C(=O)O)N2C(=O)[C@@H](NC(=O)/C(=N\O)c3csc(N)n3)[C@H]2SC1, the Activity was “substrate [+]”.

In the case of C=CC1=C(C(=O)O)N2C(=O)[C@@H](NC(=O)/C(=N\OCC(=O)O)c3csc(N)n3)[C@H]2SC1, the Activity is reported as “substrate [+]”.

In the case of C[C@H](N[C@@H](CCc1ccccc1)C(=O)O)C(=O)N1CCC[C@H]1C(=O)O, the Activity is reported as “substrate [+]”.

For CC1=C(C(=O)O)N2C(=O)[C@@H](NC(=O)[C@H](N)c3ccc(O)cc3)[C@H]2SC1, the Activity was “substrate [+]”.

For O=C(O)CN1C[C@@H](c2cccs2)SC[C@H](N[C@@H](CCc2ccccc2)C(=O)O)C1=O, the Activity was “substrate [+]”.

CCOC(=O)[C@H](CCc1ccccc1)N[C@@H](C)C(=O)N1CCC[C@H]1C(=O)O was tested, and the Activity was “substrate [+]”.

In the case of CC1(C)S[C@@H]2[C@H](NC(=O)Cc3ccccc3)C(=O)N2[C@H]1C(=O)O, the Activity is reported as “substrate [+]”.

For NCCCC[C@H](N[C@@H](CCc1ccccc1)C(=O)O)C(=O)N1CCC[C@H]1C(=O)O, the Activity was “is not a substrate [-]”.
